Measurements reported in patent publication US20250049078A1, “ECO-FRIENDLY ADDITIVES FOR HAY AND SILAGE INOCULANTS MINIMIZING GREENHOUSE GAS EMISSIONS” (Kansas State University Research Foundation, priority 2021, published 2025).

Key:
[1] = test system: N2O production from corn, alfalfa, and sorghum silages (denitrifiers); assay: N2O production from laboratory mini silos (simulated silage) with different treatments, fourth part of the study; conditions: for reduction of N2O production: inoculant + additive 0.1% (w/w), corn, alfalfa, sorghum silages, FIG. 4A, three replicates
Method: GHG production from simulated silage. Laboratory experiments were performed to estimate the GHG emission potentials from silage conservation (i.e. anaerobic conservation). In a first part of the study, N2O production from forage silos was studied. The forages used were corn, alfalfa, and sorghum. The mini silos consisted of 1 L glass jars connected to a 1-L Tedlar bag. The forage was chopped into 2-3 cm pieces with a laboratory chopper and ensiled in laboratory mini silos at a bulk density of 700 kg/m^3 (700 grams per silo). The experiments were performed in an incubator at 30° C. in the dark, and the produced gas volume and composition were measured periodically for 30 days.
(§1) The treatments compared in this research consisted of (1) no treatment, (2) commercial silage inoculant (Pioneer® inoculant), (3) inoculant+chlorate (0.1%, w/w), and (4) inoculant+acetate (0.1%, w/w). Three replicates for each treatment were performed.
In the fourth part of the study, three replicates for each treatment were added to forage silos prepared as described in paragraph [0052].

[2] = test system: N2O production from simulated silage (denitrifiers); assay: N2O production from alfalfa mini silos (simulated silage) with different treatments, fifth part of the study; conditions: for effect on N2O production: amendment 0.1% (w/w), P<0.001
Method: In a second part of the study, N2O and CH4 production from forage silos were studied. The forage used was second cut alfalfa (HVX MegaTron) harvested at the early flower stage. The mini silos consisted of 1 L glass jars connected to a 1-L Tedlar bag. The forage was chopped into 2-3 cm pieces with a laboratory chopper and ensiled in laboratory mini silos at a bulk density of 700 kg/m^3 (700 grams per silo). The experiments were performed in an incubator at 30° C. in the dark, and the produced gas volume and composition were measured periodically for 35 days.
as §1
In the fifth part of the study, three replicates for each treatment were added to forage silos prepared as described in paragraph [0054].

Row | SMILES | reduction of N2O production [1] | reduction of total amount of N2O ([2]; acetate as a sodium salt, 1 g per kg-forage, preliminary study) | effect on N2O production ([2]; preliminary study) | reduction of N2O production ([2]; inoculant + 0.1% (w/w) acetate, alfalfa silage, P<0.01, FIG. 4C) | reduction of N2O ([1]; lower concentrations up to 0.01% (w/w), alfalfa silage, FIG. 4B) | reduction of N2O production (fold) ([2]; inoculant + 0.1% (w/w) chlorate, alfalfa silage, FIG. 4C)
1 | CC(=O)O [acetate] | up to 25% | 25% | significantly repressed | 25% | – | –
2 | [O-][Cl+2]([O-])O [chlorate] | up to 99% | – | significantly repressed | – | higher than 90% | more than ten times
